US9150530B2, “Esters of 4, 9-dihydroxy-naphtho [2, 3-b] furans for disease therapies” (Zhoushan Haizhongzhou Xinsheng Pharmaceuticals Co., Ltd., priority 2011, dated 2015)

What was measured:
A549 = assay: Cell viability determination (MTT), A549; format: cell-based; conditions: Homo sapiens, A549, lung cancer, 48 hour incubation, read-out: Drug concentrations for 50% cell viability (IC50)
Text: (§1) Cell Culture: A549, DLD1, SW480, LOVO, HT-29, Hela, U-20S, MES-SA, SK-MEL-28, Panc-1, DU-145, CNE, U251, Eca-109, MGC80-3, QGY-7701, BEL-7404, PLC/PRF/5, Huh-7, and SGC-7901 cells were maintained in Dulbecco's Modified Eagle Medium (DMEM) (imported from Invitrogen, Carlsbad, Calif., USA) supplemented with 10% fetal bovine serum (FBS) (Si Ji Qing, Hangzhou, China) and 1% penicillin/streptomycin/amphotericin B (imported from Invitrogen, Carlsbad, Calif., USA).
(§2) Cell Viability Determination: Popular MTT method (Archives of Biochemistry and Biophysics, 1993, 303: 474-482) was used to screen the in vitro effects of the invented drugs. Briefly, 5000 to 10000 cells were inoculated per well in a 96-well plate. After overnight incubation, drug was added to the wells at final concentration of 10 μM, […], 2.5 μM, 1.25 μM, or 1 μM, 0.75 μM, 0.5 μM and 0.25 μM in complete culture medium. Each dose level covered 4 equivalent wells. After 48 hour incubation, one tenth volume of 5 mg/mL MTT (thiazolyl blue tetrazolium bromide, Sigma-Aldrich) stock solution was added, and incubation was continued for 2 hours. Then medium was removed and 100 μL of isopropanol solution comprising 86% isopropanol, 4% aqueous 1 N HCl and 10% aqueous SDS solution (10% in concentration) was added. The absorbance of each well at 570 nm wavelength was measured by a micro-plate reader after gentle shaking for 20 minutes. Drug concentrations of 50% cell viability (IC50) were calculated by LOGIT method.

Panc-1 = assay: Cell viability determination (MTT), Panc-1; format: cell-based; conditions: Homo sapiens, Panc-1, pancreatic cancer, 48 hour incubation, read-out: Drug concentrations for 50% cell viability (IC50)
Text: as §1, §2

CNE = assay: Cell viability determination (MTT), CNE; format: cell-based; conditions: Homo sapiens, nasopharyngeal cancer, 48 hour incubation, read-out: Drug concentrations for 50% cell viability (IC50)
Text: as §1, §2

SK-MEL-28 = assay: Cell viability determination (MTT), SK-MEL-28; format: cell-based; conditions: Homo sapiens, SK-MEL-28, malignant melanoma, 48 hour incubation, read-out: Drug concentrations for 50% cell viability (IC50)
Text: as §1, §2

QGY-7701 = assay: Cell viability determination (MTT), QGY-7701; format: cell-based; conditions: QGY7701, QGY-7701, liver cancer, 48 hour incubation, read-out: Drug concentrations for 50% cell viability (IC50)
Text: as §1, §2

DU-145 = assay: Cell viability determination (MTT), DU-145; format: cell-based; conditions: Homo sapiens, DU-145, prostate cancer, 48 hour incubation, read-out: Drug concentrations for 50% cell viability (IC50)
Text: as §1, §2

[1] = Human plasma incubation, HPLC analysis of degradation products; format: in vitro ADME; conditions: 20 μM in human plasma, 37° C., 2 hours
Description: The compounds of formula I were incubated in human plasma at 37° C. for 2 hours, and then the mixtures were treated with acetonitrile to remove protein and the resulting supernatants were analyzed by HPLC (FIG. 2). […] Without wishing to be bound by a particular theory, it is believed that, although not detected due to instability in a protein-free environment, the direct hydrolysis product of a compound of formula I, 4,9-dihydroxy-naphtho[2,3-b]furan, and its partially oxidized product semihydroquinone (shown in scheme 6) co-exist in vivo and play important biological roles.
HPLC column: Waters Sunfire C18, 250×4.60 mm 5 micron; Mobile phase: buffer A, 90% 5 mM potassium phosphate buffer, pH 6.8, 10% acetonitrile; buffer B, 15% 5 mM potassium phosphate buffer, pH 6.8, 85% acetonitrile; Detector: Waters 2998 Photodiode Array Detector.
Gradient B: 0-3 min, 50% buffer B, 3-5 min, 50%-100% buffer B, 5-18 min, 100% buffer B, 18-22 min, 100%-50% buffer B, 22-25 min, […]; flow rate, 1 ml/min. Analysis of the 4,9-dihydroxy-naphtho[2,3-b]furan compounds (FIG. 1)
10 mM of a compound of formula I or its analog in DMSO (however, compound VI was in DMF) was diluted with human plasma to 20 μM, and the resulting mixtures were incubated at 37° C. for 2 hours. To plasma sample, 9 times volume of acetonitrile was added. The resulting mixtures were vortexed and incubated in dry ice for 30 minutes or in −20° C. freezer for 3 hours, then centrifuged, and supernatant was used for HPLC analysis using gradient B.

Hela = assay: Cell viability determination (MTT), Hela; format: cell-based; conditions: Homo sapiens, cervical cancer, 48 hour incubation, read-out: Drug concentrations for 50% cell viability (IC50)
Text: as §1, §2

SW480 = assay: Cell viability determination (MTT), SW480; format: cell-based; conditions: Homo sapiens, SW480, colorectal cancer, 48 hour incubation, read-out: Drug concentrations for 50% cell viability (IC50)
Text: as §1, §2

U-20S = assay: Cell viability determination (MTT), U-20S; format: cell-based; conditions: osteosarcoma, 48 hour incubation, read-out: Drug concentrations for 50% cell viability (IC50)
Text: as §1, §2

DLD1 = assay: Cell viability determination (MTT), DLD1; format: cell-based; conditions: Homo sapiens, DLD-1, DLD1, colorectal cancer, 48 hour incubation, read-out: Drug concentrations for 50% cell viability (IC50)
Text: as §1, §2

LOVO = assay: Cell viability determination (MTT), LOVO; format: cell-based; conditions: Homo sapiens, colorectal cancer, 48 hour incubation, read-out: Drug concentrations for 50% cell viability (IC50)
Text: as §1, §2

MGC80-3 = assay: Cell viability determination (MTT), MGC80-3; format: cell-based; conditions: Homo sapiens, MGC-803, MGC80-3, stomach cancer, 48 hour incubation, read-out: Drug concentrations for 50% cell viability (IC50)
Text: as §1, §2

Eca-109 = assay: Cell viability determination (MTT), Eca-109; format: cell-based; conditions: Homo sapiens, Eca-109, esophageal cancer, 48 hour incubation, read-out: Drug concentrations for 50% cell viability (IC50)
Text: as §1, §2

MES-SA = assay: Cell viability determination (MTT), MES-SA; format: cell-based; conditions: Homo sapiens, leiomyosarcoma, 48 hour incubation, read-out: Drug concentrations for 50% cell viability (IC50)
Text: as §1, §2

U251 = assay: Cell viability determination (MTT), U251; format: cell-based; conditions: Homo sapiens, U-251, U251, glioma, 48 hour incubation, read-out: Drug concentrations for 50% cell viability (IC50)
Text: as §1, §2

Work on `CC(=O)Oc1c2ccccc2c(OC(=O)CNC(=O)OC(C)(C)C)c2oc(C(C)=O)cc12` [compound IV, 2-acetyl-4-acetoxy-9-[(tert-butoxycarbonyl)amino]acetoxy-naphtho[2,3-b]furan] yielded an IC50 (A549) of 600 nM, an IC50 (Panc-1) of 870 nM and an IC50 (CNE) of 1330 nM. The IC50 (SK-MEL-28) was 250 to 500 nM, the IC50 (QGY-7701) was 3260 nM and the IC50 (DU-145) was 250 to 500 nM. The “Degradation / detectable products after incubation in human plasma” value [1] was “the detectable products were compound XIII and partially degraded products”, the IC50 (Hela) was 860 nM and the IC50 (SW480) was 910 nM. It also gave an IC50 (U-20S) of 750 to 1000 nM, an IC50 (DLD1) of 300 nM and an IC50 (LOVO) of 1930 nM. The IC50 (MGC80-3) was 1220 nM, the IC50 (Eca-109) was 1630 nM and the IC50 (MES-SA) was 420 nM. For the same molecule, the IC50 (U251) was 1140 nM.
